Read-outs that look alike come from different tables or passages of the source.
Experiments:
HAC15 cells [1] = test: Cell number (DNA) of HAC15 cells; format: cell-based, Human; conditions: HAC15, 1 or 3 days, with or without ACTH
Procedure: (§1) Human adrenocortical carcinoma HAC15 and mouse corticotroph AtT20 cells were used, purchased as a kind gift by Dr. W. Rainey, and obtained from Dr. J. Tooze (European Organization for Molecular Biology), respectively. Both cell lines were cultured in 75 cm^2 flasks at 37° C. in a humidified incubator (Greiner Bio-One, Alphen a/d Rijn, the Netherlands) at 5% CO2. Dulbecco's Modified Eagle Medium F12 containing 5% fetal calf serum was used for HAC15, whereas AtT20 cells were cultured in Dulbecco's minimal essential medium (DMEM) supplemented with 10% fetal calf serum. Both mediums were supplemented with L-glutamine (2 mmol/L) and penicillin (10^5 U/L). Short tandem repeat (str) profiling using a Powerplex Kit (Promega, Leiden, the Netherlands) of HAC15 and AtT20 gave results consistent with the ATCC database, confirming the identity of both cell lines. Medium and supplements were obtained from Invitrogen, Breda, the Netherlands. Once a week, cells were harvested with trypsin (0.05%)-EDTA (0.53 mM) and resuspended in culture medium. […]
As a measure of cell number, DNA concentrations were determined using the bisbenzimide fluorescent dye (Hoechst 33258, Sigma Aldrich), as previously described.

HAC15 cells [2] = test: Cortisol production by HAC15 cells (immunoassay); format: cell-based, Human; conditions: HAC15, after 3 days of treatment (FIG. 1B)
Procedure: as §1, with “medium. Levoketoconazole (COR-003) and racemic ketoconazole (both from Cortendo AB) were dissolved in absolute ethanol (EtOH), according to manufacturer's instructions, and stored at −20° C. at a stock concentration of […]. At the start of each experiment, both drugs were freshly prepared and diluted in EtOH in the correct concentrations. Synacten (synthetic ACTH, Novartis Pharma A.G.) stock concentration was stored at 4° C. and dissolved in culture medium at the day of use. The final concentrations of ACTH were chosen based on a dose-response curve in HAC15 cells and previously reported studies in the literature. For HAC15, 200,000 and 100,000 cells were plated in 0.5 ml medium in 24 well plates for experiments of 1 and 3 days, respectively.” for “medium.”
Cortisol concentrations were measured in the supernatant using a chemiluminescence immunoassay system (Immulite 2000XPi; Siemens DPC Inc., Los Angeles, Calif., USA). In addition, we carried out multi-steroid analysis by liquid chromatography/mass spectrometry (LC/MS-MS) to accurately quantify androstenedione, corticosterone, cortisol, 11-deoxycortisol, DHEA, DHEAS, progesterone, 17-hydroxyprogesterone, and testosterone. […] Steroids were quantified with respect to a calibration series, with internal standards. Steroids were quantified on a Xevo TQS LC-MS/MS (Waters Chromatography).
Statistical analysis was performed using Graphpad Prism 6.0 (Graphpad Software, San Diego, CA). […] Effects of both compounds on the steroid profile were measured as absolute change compared to control and compared using the Student's t-test. When assessing differences between effects of both compounds, the percentage change was evaluated and compared in order to correct for differences in the vehicle treated control cells. […]

[3] = system: cortisol-producing adrenal adenoma cultures; test: Cortisol production in primary cortisol-producing adrenal adenoma cultures; format: cell-based, human
Procedure: To obtain primary cultures, adrenal specimens (adrenocortical adenomas, adrenal hyperplasias and adrenocortical carcinomas) were collected after adrenalectomy at the department of Surgery, Erasmus University Medical Center, Rotterdam, the Netherlands, between April 2016 and May 2018. The study was conducted under guidelines that have been approved by the Medical Ethics Committee of the Erasmus Medical Center and informed consent was obtained from all patients. Immediately after surgery, specimens were minced into small pieces of 2-3 mm^3, washed in culture medium and centrifuged for 5 minutes at 600 g. The tissue was stored overnight in culture medium at 4° C., where after the tissue was centrifuged again and the supernatant was removed. Fragments were dissociated using 10-25 ml collagenase type 1 (2 mg/ml: Sigma-Aldrich), followed by incubation at 37° C. for up to two hours. Ficoll (GE healthcare) density gradient separation was used once or twice as required in order to separate contaminating red blood cells from the tumor cells. Cell viability and cell amount were counted by trypan blue exclusion. Dissociated cells were plated at a density of 10^5 cells per well. ACTH-secreting corticotroph pituitary adenoma tissue from patients with Cushing's disease (n=2) was available after transsphenoidal surgery. Single-cell suspensions of the pituitary adenoma tissues were prepared as previously described in detail.
Owing to a limited number of cells obtained from the specimens, not all experiments were carried out in every primary culture.
Cortisol concentrations were measured in the supernatant using a chemiluminescence immunoassay system (Immulite 2000XPi; Siemens DPC Inc., Los Angeles, Calif., USA). In addition, we carried out multi-steroid analysis by liquid chromatography/mass spectrometry (LC/MS-MS) to accurately quantify androstenedione, corticosterone, cortisol, 11-deoxycortisol, DHEA, DHEAS, progesterone, 17-hydroxyprogesterone, and testosterone. Concentrations that were tested on the LC/MS-MS were closest to 50% inhibition or maximal inhibition of cortisol as determined by the immunoassay. Steroids were quantified with respect to a calibration series, with internal standards. Steroids were quantified on a Xevo TQS LC-MS/MS (Waters Chromatography).
Statistical analysis was performed using Graphpad Prism 6.0 (Graphpad Software, San Diego, CA). Non-linear regression curve fitting program was used to calculate the half maximal inhibitory concentrations (IC50) on cortisol production. Effects of both compounds on the steroid profile were measured as absolute change compared to control and compared using the Student's t-test. When assessing differences between effects of both compounds, the percentage change was evaluated and compared in order to correct for differences in the vehicle treated control cells. Values of P<0.05 were considered statistically significant and data are presented as mean SEM.

IC50 (HAC15 cells [2]; Homo sapiens, 72 h) [nM] | IC50 ([3]; Homo sapiens, 72 h, CPA no. 2, basal condition, 3 days, read-out: IC50 inhibition of cortisol production) [nM] | IC50 ([3]; Homo sapiens, 72 h, CPA no. 3, basal condition, 3 days, read-out: IC50 inhibition of cortisol production) [nM] | SMILES | effects on cell number (HAC15 cells [1]) | IC50 (HAC15 cells [2]) [nM] | IC50 ([3]; CPA no. 1, basal condition, 3 days, read-out: IC50 inhibition of cortisol production) [nM] | IC50 ([3]; CPA no. 2, basal condition, 3 days, read-out: IC50 inhibition of cortisol production) [nM] | IC50 ([3]; CPA no. 3, basal condition, 3 days, read-out: IC50 inhibition of cortisol production) [nM] | IC50 ([3]; CPA no. 4, basal condition, 3 days, read-out: IC50 inhibition of cortisol production) [nM] | IC50 ([3]; basal condition, ACA (n=4), read-out: mean IC50 cortisol production) [nM]
– | – | – | CC(=O)N1CCN(c2ccc(OC[C@@H]3CO[C@@](Cn4ccnc4)(c4ccc(Cl)cc4Cl)O3)cc2)CC1 (relative stereo) [levoketoconazole, 2S,4R cis-1-acetyl-4-[4-[[2-(2,4-dichlorophenyl)-2-(1H-imidazol-1-ylmethyl)-1,3-dioxolan-4-yl]methoxyl]phenyl]piperazine] | no effects | 300 | 116 | 125 | 140 | 63.1 | 110
611 | 266 | 138 | CC(=O)N1CCN(c2ccc(OCC3COC(Cn4ccnc4)(c4ccc(Cl)cc4Cl)O3)cc2)CC1 (racemic) [racemic ketoconazole, Ketoconazole] | no effects | – | – | – | – | – | –

Source: patent US12201632B2, “Levoketoconazole for treatment of congenital adrenal hyperplasia and primary aldosteronism” (Strongbridge Dublin Limited, priority 2018, dated 2025)
